Entries after “also recorded” stand apart in the source; their conditions may differ. Read-outs that look alike come from different tables or passages of the source.

Here are results for five molecules from patent US11844794B2, “Pharmaceutical compositions” (ADEPTIO PHARMACEUTICALS LIMITED, priority 2017, dated 2023).

Data set [1] can be described thus: equilibrium aqueous solubility by HPLC. It is filed as physicochemical. As to the method:
The aqueous solubilities of salts were measured by an equilibrium method in which an amount of the salt was weighed into a 2 ml vial equipped with a magnetic stirrer bar and water added. In cases where complete dissolution was observed, more material was added until the sample was exhausted. The slurry was then stirred for seven days before isolating the solids by centrifuge-filtration. The solids were analysed by XRPD and the filtrates were analysed by HPLC to determine the amount of (+)-alpha-dihydrotetrabenazine salt in solution. The solubilities were calculated against a calibration curve established for a (+)-alpha-dihydrotetrabenazine sample of known concentration.

The nature of data set [2]: thermal gravimetric analysis (TGA) / thermal stability. Conditions: for TGA weight loss: 30-300° C. at 10° C./minute.
Experimental: Differential scanning calorimetry (DSC) was carried out on the sample “as is” using a Mettler DSC1 instrument. The sample was weighed I an aluminium pan, covered with a pierced lid, and then crimped and analysed from 30-300° C. at 10° C./minute.
Thermal gravimetric analysis was performed on the sample “as is” using a Mettler 851^e TGA instrument. The sample was weighed in an alumina crucible and analysed from 30-300° C. at 10° C./minute.
A short description of data set [3]: solid form stability in slurry / polymorphism by XRPD. The format is physicochemical. Conditions: for crystalline form after stirring in slurry (XRPD): one week.
In data set [4] the test system is Tardive Dyskinesia sufferers. The following applies: Valbenazine 80 mg/day; cited from earlier work.
Data set [5] has as its system patients suffering from tardive dyskinesia. Conditions: cited from earlier work.
The nature of data set [6]: moisture-sorption analysis. The format is physicochemical. Conditions: for moisture uptake: 25° C. The method, then:
Moisture-sorption analysis was carried out using a Hiden IGA Sorp moisture-sorption analyser. […] The sample was then subjected to an isothermal (at 25° C.) adsorption scan from 40 to 90% relative humidity in steps of 10%. The sample was allowed to equilibrate to an asymptotic weight at each point for a maximum of four hours. […] An adsorption scan was then performed from 0 to 40% relative humidity inn steps of 10%. The sample was dried for two hours at 60° C. and 0% relative humidity, and the resulting solid was analysed by XRPD.

For the next data set, the system named is amphetamine-induced rats. Briefly: amphetamine-induced locomotor activity, open field test. The following applies: male CD rats. It is filed as in vivo, rat. As to the method: (§1) All animal experiments were carried out according to the National Institute of Health (NIH) guidelines for the care and use of laboratory animals, and approved by the National Animal Experiment Board, Finland. Male CD (Charles River Laboratories, Germany) at weight range of 200-250 g (165-200 g upon arrival) were used for the experiments. Animals were housed at a standard temperature (22±1° C.) and in a light-controlled environment (lights on from 7 am to 8 pm) with ad libitum access to food and water.
(§2) Locomotor activity of the rats was tested in open field arena. The open field test was performed during the rat light cycle and under a normal lighting evenly distributed to the test chambers. The paths of the rats were recorded by activity monitor (Med. Associates Inc.).
(§3) Dosing the vehicle, vehicle-amphetamine, (+)-α-DHTBZ or risperidone was done prior to LMA test. The rats were placed in the centre of the arena, and the path was recorded for 60 minutes.
Animals were grouped as follows: • Group 1: 10 rats treated with Vehicle (t=0 min) and Vehicle (t=30 min) • Group 2: 10 rats treated with Vehicle (t=0 min) and Amphetamine (t=30 min) • Group 3: 10 rats treated with (+)-α-DHTBZ 0.5 mg/kg (t=0 min) and Amphetamine (t=30 min) • Group 4: 10 rats treated with (+)-α-DHTBZ 1 mg/kg (t=0 min) and Amphetamine (t=30 min) • Group 5: 10 rats treated with (+)-α-DHTBZ 1.5 mg/kg (t=0 min) and Amphetamine (t=30 min) • Group 6: 10 rats treated with (+)-α-DHTBZ 2 mg/kg (t=0 min) and Amphetamine (t=30 min) • Group 7: 10 rats treated with risperidone 1 mg/kg (t=0 min) and Amphetamine (t=30 min)
Rats dosed with either vehicle, (+)-α-DHTBZ 0.5 mg/kg, (+)-α-DHTBZ 1 mg/kg, (+)-α-DHTBZ 1.5 mg/kg, (+)-α-DHTBZ 2 mg/kg or Risperidone 1 mg/kg were subjected to LMA testing first for 30 min and then for 60 minutes after vehicle or amphetamine challenge. Resulting locomotor activity was evaluated in 3 min bins and as a total over the testing period.
Rats dosed with either vehicle, (+)-α-DHTBZ 0.5 mg/kg, (+)-α-DHTBZ 1 mg/kg, (+)-α-DHTBZ 1.5 mg/kg, (+)-α-DHTBZ 2 mg/kg or Risperidone 1 mg/kg were subjected to LMA testing first for 30 min and then for 60 minutes after vehicle or amphetamine challenge. Resulting stereotypic activity was evaluated in 3 min bins and as a total over the testing period. […]

Data set [7] relates to non-amphetamine induced rats. Briefly: locomotor activity in rats without amphetamine induction, open field test. The format is in vivo, rat. The following applies: Study 3, non-induced rats, 1 mg/kg. The method, then:
as §1, §2, §3
Animals were grouped as follows: • Group 1: 10 rats treated with Vehicle • Group 2: 10 rats treated with (+)-α-DHTBZ 2.5 mg/kg • Group 3: 10 rats treated with (+)-α-DHTBZ 5 mg/kg • Group 4: 10 rats treated with risperidone 1 mg/kg

Data set [8] addresses Chromaffin Granule Monoamine Transporter (Bos taurus, UniProt Q27963). The following applies: racemic α versus racemic β, in vitro; cited from earlier work.

Chromaffin Granule Monoamine Transporter, sequence (Q27963 whole entry): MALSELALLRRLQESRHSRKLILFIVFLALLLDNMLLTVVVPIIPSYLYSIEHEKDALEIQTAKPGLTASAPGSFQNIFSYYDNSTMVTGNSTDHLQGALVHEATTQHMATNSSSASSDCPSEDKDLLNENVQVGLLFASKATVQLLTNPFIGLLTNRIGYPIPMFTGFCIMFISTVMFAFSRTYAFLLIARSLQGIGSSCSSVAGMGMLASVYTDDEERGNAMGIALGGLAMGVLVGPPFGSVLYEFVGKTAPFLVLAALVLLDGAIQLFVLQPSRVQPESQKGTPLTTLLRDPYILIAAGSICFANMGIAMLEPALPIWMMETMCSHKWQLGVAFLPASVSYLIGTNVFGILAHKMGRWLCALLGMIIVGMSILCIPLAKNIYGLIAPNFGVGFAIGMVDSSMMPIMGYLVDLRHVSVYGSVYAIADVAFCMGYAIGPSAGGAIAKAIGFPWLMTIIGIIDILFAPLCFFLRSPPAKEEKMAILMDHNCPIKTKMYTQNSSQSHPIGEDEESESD

As a reminder, the solubility (thermodynamic) is the concentration in solution at equilibrium with solid. Turning to `COc1cc2c(cc1OC)[C@H]1C[C@@H](O)[C@H](CC(C)C)CN1CC2.Cl` [HCl salt form A, (+)-α-dihydrotetrabenazine hydrochloride], in [1], the “equilibrium solubility in water” value was 203 mg/mL and the thermodynamic solubility was 203 mg/mL. Besides, the TGA weight loss result in [2] is reported as “No weight loss”. In data set [3], the polymorphism result is recorded as “undesirable polymorphism”. Besides, in [3] (aqueous slurry), the “crystalline form after stirring in slurry (XRPD)” value is recorded as “conversion to a different (by XRPD) crystalline form”.

As for `COc1cc2c(cc1OC)[C@H]1C[C@@H](OC(=O)[C@@H](N)C(C)C)[C@H](CC(C)C)CN1CC2` [Valbenazine], the “Abnormal Involuntary Movement Score” value in data set [4] is on record as “significant improvement”. In addition, the “improvement scored with AIMS” value in data set [5] (Valbenazine 50 mg/day) is reported as “did not show any significant signs of improvement”. The “reduction of symptoms (AIMS)” value in data set [5] (Valbenazine 100 mg/day) is on record as “some reduction of symptoms”.

Turning to `COc1cc2c(cc1OC)[C@H]1C[C@@H](O)[C@H](CC(C)C)CN1CC2.O=S(=O)(O)c1ccccc1` [benzenesulphonate salt], in [1] (water, measured by HPLC), the “equilibrium solubility in water” value was 2.20 mg/mL. Moreover, the figures for the moisture uptake in data set [6] (60% relative humidity) and in data set [6] (90% relative humidity) were 0.2 wt % and 1.7 wt %, respectively. In addition, the hygroscopicity result in data set [6] (gravimetric moisture-sorption) is listed as “slightly hygroscopic”. For the same molecule, the TGA weight loss entry in data set [2] is recorded as “No weight loss”. Further, the thermal stability result in [2] (from DSC and TGA) is “good thermal stability”. Further, in data set [3], the polymorphism entry is given as “no apparent polymorphism”. In addition, the “crystalline form after stirring in slurry (XRPD)” value in data set [3] (water, ethanol and ethyl acetate slurry) was “remained unchanged”.

`Cc1nc2n(c(=O)c1CCN1CCC(c3noc4cc(F)ccc34)CC1)CCCC2` [risperidone, reference compound]: in the data set on amphetamine-induced rats (Study 1, 1 mg/kg), the “total distance travelled compared to vehicle-amphetamine group” value is recorded as “lower locomotor activity” and the “total stereotypic behaviour compared to vehicle-amphetamine group” value was “significantly different; also recorded: reduced stereotypic behaviour”. In the data set with amphetamine-induced rats (Study 2, 1 mg/kg), the “total distance travelled compared to vehicle-amphetamine group” value was “lower locomotor activity” and the “total stereotypic behaviour compared to vehicle-amphetamine group” value is reported as “significantly different; also recorded: reduced stereotypic behaviour”. Also, in data set [7], the “total movement versus vehicle” value is on record as “reduced total movement” and the “total stereotypic behaviour versus vehicle” value is listed as “reduced total stereotypic behaviour”.

In the case of α-dihydrotetrabenazine, in data set [8], the “higher affinity than the β-isomer” value is 3- to 4 fold.
